The assay deals with beta-TC6 cells. As to the kind of experiment: Insulin HTRF assay (relative activity Ar) in beta-TC6 cells. Format: cell-based, mouse. Conditions: Mus musculus, Beta-TC6, 4 h, insulin HTRF, supernatant of beta-TC6 cells, incubation with test compound at 37°C for 2, 3, 4h; read-out: Ar (relative activity). An outline of the steps:
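beta-TC6 cells (15k/well, seeded 24 or 48 h) washed, then exposed to compound in induction buffer (0.5% DMSO final) for 2, 3 or 4 h at 37°C.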
(Time-resolved FRET reads energy transfer from a long-lived donor to a nearby acceptor.)

Bounds are passed on as bounds.

As for `COc1ccc(Nc2nccc3[nH]c(-c4ccc5c(c4)OCCO5)nc23)cc1` [Compound 414, 2-(2,3-dihydro-1,4-benzodioxin-6-yl)-N-(4-methoxyphenyl)-1H-imidazo[4,5-c]pyridin-4-amine], the Emax is 50 to 100%.

Turning to `COc1ccc(Nc2nccc3c2ncn3C)cc1OC` [Compound 447, N-(3,4-dimethoxyphenyl)-1-methyl-imidazo[4,5-c]pyridin-4-amine], the Emax was in the range of 50 to 100%.

For the compound `CNc1nc2cnc(Nc3cccc(C(C)=O)c3)cc2n1CCN1CCOCC1` [Compound 558, 1-[3-[[2-(methylamino)-1-(2-morpholinoethyl)imidazo[4,5-c]pyridin-6-yl]amino]phenyl]ethanone], the Emax fell in the range of 50 to 100%.

In the case of `CC(=O)N(C)c1cccc(-c2cc3cnc(Nc4ccc(C(N)=O)cc4)cc3n2C)c1` [Compound 159, 4-[[2-[3-[acetyl(methyl)amino]phenyl]-1-methyl-pyrrolo[3,2-c]pyridin-6-yl]amino]benzamide], the Emax was 50 to 100%.

As to `CN(C)c1cccc(Nc2nccc3c2ncn3C)c1` [Compound 450, N1,N1-dimethyl-N3-(1-methylimidazo[4,5-c]pyridin-4-yl)benzene-1,3-diamine], the Emax lay in the range of 30 to 50%.

With `CN1CCN(c2ccc(Nc3cc4c(cn3)cc(-c3cnn(C)c3)n4C)cc2)CC1` [Compound 133, 1-methyl-N-[4-(4-methylpiperazin-1-yl)phenyl]-2-(1-methylpyrazol-4-yl)pyrrolo[3,2-c]pyridin-6-amine], the Emax lay in the range of 50 to 100%.

Consider `CNc1nc2cnc(Nc3ccc(OC)cc3)cc2n1CCN1CCOCC1` [Compound 557, N6-(4-methoxyphenyl)-N2-methyl-1-(2-morpholinoethyl)imidazo[4,5-c]pyridine-2,6-diamine], for which the Emax fell in the range of 50 to 100%.

Turning to `COc1ccc(CNc2nccc3c2ncn3Cc2ccccc2)cc1` [Compound 455, 1-benzyl-N-[(4-methoxyphenyl)methyl]imidazo[4,5-c]pyridin-4-amine], the Emax lay in the range of 0 to 30%.

For the compound `COc1ccc(Nc2cc3c(cn2)cc(-c2cccc(N(C)C(C)=O)c2)n3C)cn1` [Compound 161, N-[3-[6-[(6-methoxy-3-pyridyl)amino]-1-methyl-pyrrolo[3,2-c]pyridin-2-yl]phenyl]-N-methyl-acetamide], the Emax lay in the range of 50 to 100%.

As for `c1cncc(Nc2nccc3[nH]c(-c4ccsc4)cc23)c1` [Compound 255, N-(3-pyridyl)-2-(3-thienyl)-1H-pyrrolo[3,2-c]pyridin-4-amine], the Emax is 50 to 100%.

Take `CNc1nc2cnc(-c3cccc(OC(F)(F)F)c3)cc2n1Cc1ccccc1` [Compound 762, 1-benzyl-N-methyl-6-[3-(trifluoromethoxy)phenyl]imidazo[4,5-c]pyridin-2-amine]: the Emax lay within 0 to 30%.

With `CNc1nc2cnc(Nc3ccc(C(=O)OC)cc3)cc2n1-c1ccccc1` [Compound 511, methyl 4-[[2-(methylamino)-1-phenyl-imidazo[4,5-c]pyridin-6-yl]amino]benzoate], the Emax was in the range of 30 to 50%.

As to `c1ccc(Cn2cnc3c(NCc4cccs4)nccc32)cc1` [Compound 452, 1-benzyl-N-(2-thienylmethyl)imidazo[4,5-c]pyridin-4-amine], the Emax fell in the range of 30 to 50%.

As for `CC(=O)N(C)c1cccc(-c2cc3cnc(Nc4ccc(N5CCN(C)CC5)cc4)cc3n2C)c1` [Compound 164, N-methyl-N-[3-[1-methyl-6-[4-(4-methylpiperazin-1-yl)anilino]pyrrolo[3,2-c]pyridin-2-yl]phenyl]acetamide], the Emax lay in the range of 50 to 100%.

With `c1ccc(-c2nc3c(NCCc4ccccn4)nccc3[nH]2)cc1` [Compound 332, 2-phenyl-N-[2-(2-pyridyl)ethyl]-1H-imidazo[4,5-c]pyridin-4-amine], the Emax was 30 to 50%.

Regarding `CC(=O)Nc1ccc(Nc2cc3c(cn2)nc(-c2ccccc2)n3C)cc1` [Compound 702, N-[4-[(1-methyl-2-phenyl-imidazo[4,5-c]pyridin-6-yl)amino]phenyl]acetamide], the Emax is 50 to 100%.

On to `COc1ccc(-c2nc3c(Nc4cccc(O)c4)nccc3[nH]2)cc1OC` [Compound 352, 3-[[2-(3,4-dimethoxyphenyl)-1H-imidazo[4,5-c]pyridin-4-yl]amino]phenol], for which the Emax is more than 100%.

For `CN(C)C(=O)c1ccc(-c2cc3cnc(Nc4ccccc4)cc3n2C)cc1` [Compound 48, 4-(6-anilino-1-methyl-pyrrolo[3,2-c]pyridin-2-yl)-N,N-dimethyl-benzamide], the Emax was in the range of 50 to 100%.

In the case of `COc1ccc(Nc2nccc3[nH]c(-c4cccnc4)cc23)cc1O` [Compound 236, 2-methoxy-5-[[2-(3-pyridyl)-1H-pyrrolo[3,2-c]pyridin-4-yl]amino]phenol], the Emax was 50 to 100%.

For the compound `Cn1c(-c2ccccc2)nc2cnc(Nc3ccc4c(c3)OCO4)cc21` [Compound 706, N-(1,3-benzodioxol-5-yl)-1-methyl-2-phenyl-imidazo[4,5-c]pyridin-6-amine], the Emax is 50 to 100%.

With `Cn1c(NCc2ccccc2F)nc2cnc(-c3ccc(CO)cc3)cc21` [Compound 655, [4-[2-[(2-fluorophenyl)methylamino]-1-methyl-imidazo[4,5-c]pyridin-6-yl]phenyl]methanol], the Emax is 50 to 100%.

`c1cc2[nH]c(-c3ccc4c(c3)OCCO4)nc2c(NCC2CC2)n1` [Compound 419, N-(cyclopropylmethyl)-2-(2,3-dihydro-1,4-benzodioxin-6-yl)-1H-imidazo[4,5-c]pyridin-4-amine]: the Emax fell in the range of 50 to 100%.

On to `CNc1nc2cnc(Nc3ccc(O)cc3)cc2n1-c1cccc(C(F)(F)F)c1` [Compound 541, 4-[[2-(methylamino)-1-[3-(trifluoromethyl)phenyl]imidazo[4,5-c]pyridin-6-yl]amino]phenol], for which the Emax was 50 to 100%.

`COc1ccc(Nc2cc3[nH]c(-c4cccc(F)c4)cc3cn2)cn1` [Compound 8, 2-(3-fluorophenyl)-N-(6-methoxy-3-pyridyl)-1H-pyrrolo[3,2-c]pyridin-6-amine]: the Emax is 30 to 50%.

Turning to `CC(=O)Nc1ccc(Nc2cc3c(cn2)ncn3Cc2ccccc2)cc1` [Compound 694, N-[4-[(1-benzylimidazo[4,5-c]pyridin-6-yl)amino]phenyl]acetamide], the Emax is 50 to 100%.

In the case of `Cc1cccc(Nc2cc3[nH]c(-c4cncn4C)cc3cn2)c1` [Compound 105, 2-(3-methylimidazol-4-yl)-N-(m-tolyl)-1H-pyrrolo[3,2-c]pyridin-6-amine], the Emax was 50 to 100%.

As to `CCN(CC)CCNC(=O)c1ccc(Nc2nccc3[nH]c(-c4ccncc4)nc23)cc1` [Compound 425, N-(2-diethylaminoethyl)-4-[[2-(4-pyridyl)-1H-imidazo[4,5-c]pyridin-4-yl]amino]benzamide], the Emax was in the range of 50 to 100%.

For `CN(C)c1cccc(Nc2nccc3[nH]c(-c4ccncc4)nc23)c1` [Compound 426, N1,N1-dimethyl-N3-[2-(4-pyridyl)-1H-imidazo[4,5-c]pyridin-4-yl]benzene-1,3-diamine], the Emax is 50 to 100%.

Regarding `CN(C)C(=O)c1ccc(-c2cc3cnc(Nc4cccc(N(C)C)c4)cc3n2C)cc1` [Compound 50, 4-[6-[3-(dimethylamino)anilino]-1-methyl-pyrrolo[3,2-c]pyridin-2-yl]-N,N-dimethyl-benzamide], the Emax was 50 to 100%.

For `Cn1nc(C(C)(C)C)cc1Nc1cc2c(cn1)ncn2Cc1ccco1` [Compound 776, N-(5-tert-butyl-2-methyl-pyrazol-3-yl)-1-(2-furylmethyl)imidazo[4,5-c]pyridin-6-amine], the Emax was 0 to 30%.

For the compound `CNc1nc2cnc(Nc3ccc4c(c3)OCCO4)cc2n1Cc1ccccc1` [Compound 528, 1-benzyl-N6-(2,3-dihydro-1,4-benzodioxin-6-yl)-N2-methyl-imidazo[4,5-c]pyridine-2,6-diamine], the Emax lay in the range of 50 to 100%.

In the case of `CC(=O)c1cccc(Nc2cc3[nH]c(-c4cnn(C)c4)cc3cn2)c1` [Compound 124, 1-[3-[[2-(1-methylpyrazol-4-yl)-1H-pyrrolo[3,2-c]pyridin-6-yl]amino]phenyl]ethanone], the Emax was more than 100%.

With `COc1ccc(Nc2cc3[nH]c(-c4cccnc4)cc3cn2)cn1` [Compound 75, N-(6-methoxy-3-pyridyl)-2-(3-pyridyl)-1H-pyrrolo[3,2-c]pyridin-6-amine], the Emax is more than 100%.

Regarding `CNc1nc2cnc(-c3cccc(C(=O)NCCO)c3)cc2n1Cc1ccccc1` [Compound 794, 3-[1-benzyl-2-(methylamino)imidazo[4,5-c]pyridin-6-yl]-N-(2-hydroxyethyl)benzamide], the Emax was in the range of 0 to 30%.

For the compound `COc1ccc(Nc2nccc3c2cc(-c2ccc(C(=O)N(C)C)cc2)n3C)cc1OC` [Compound 215, 4-[4-(3,4-dimethoxyanilino)-1-methyl-pyrrolo[3,2-c]pyridin-2-yl]-N,N-dimethyl-benzamide], the Emax was in the range of 50 to 100%.

In the case of `COc1ccccc1-c1cc2c(Nc3cccc(NS(C)(=O)=O)c3)nccc2[nH]1` [Compound 298, N-[3-[[2-(2-methoxyphenyl)-1H-pyrrolo[3,2-c]pyridin-4-yl]amino]phenyl]methanesulfonamide], the Emax lay within 50 to 100%.

Turning to `CN1CCN(c2ccc(Nc3nccc4[nH]c(-c5ccccc5)cc34)cc2)CC1` [Compound 320, N-[4-(4-methylpiperazin-1-yl)phenyl]-2-phenyl-1H-pyrrolo[3,2-c]pyridin-4-amine], the Emax lay in the range of 30 to 50%.

Turning to `CC(=O)Nc1cccc(Nc2cc3[nH]c(-c4cccnc4)cc3cn2)c1` [Compound 80, N-[3-[[2-(3-pyridyl)-1H-pyrrolo[3,2-c]pyridin-6-yl]amino]phenyl]acetamide], the Emax is more than 100%.

Consider `c1ccc(-c2nc3c(N4CCOCC4)nccc3[nH]2)cc1` [Compound 338, 4-(2-phenyl-1H-imidazo[4,5-c]pyridin-4-yl)morpholine], for which the Emax was in the range of 30 to 50%.

For the compound `COc1ccc(Nc2nccc3[nH]c(-c4cccc(C(F)(F)F)c4)nc23)cc1` [Compound 356, N-(4-methoxyphenyl)-2-[3-(trifluoromethyl)phenyl]-1H-imidazo[4,5-c]pyridin-4-amine], the Emax was more than 100%.

These data come from EP2818472A1, “Imidazo[4,5-c]pyridine and pyrrolo[3,2-c]pyridine compounds as G-protein-coupled receptor kinase 5 (GRK5) modulators” (Max-Planck-Gesellschaft zur Förderung der Wissenschaften …, priority 2013, dated 2014).
